The values that follow come from patent US10190120B2, “Zn-DPA complex compounds and siRNA delivery systems containing the same” (KOREA INSTITUTE OF SCIENCE AND TECHNOLOGY, priority 2016, dated 2019).

One assay deals with HCT116 cell line. Kind of assay: siRNA delivery efficiency with biotin pre-treatment (competition). The note with it: biotin 0.5 mM and 5 mM 30 minutes before, molar ratio 1:400, FIG. 6. The format is cell-based. How it is done:
(§1) According to Experimental Example 1 (1), composites having a molar ratio of siRNA (luciferase siRNA, siLuc) and the Zn-DPA complex compound of 1:50, 1:100, 1:200, 1:400, 1:600, 1:800, and 1:1,000 were prepared, and the concentration of siLuc per sample was adjusted constantly at 20 nM. The composite was treated with ssPEI/CMV-LUC (1 μg) in HeLa, HepG2, and HCT116 cell lines, and was washed with a Dulbecco's phosphate buffered saline solution (DPBS) after 6 hours, and then the composite was treated in a serum-free medium. After 4 hours, the medium was exchanged with a 10% serum medium, and then the samples were cultivated at 37° C. for 24 hours. The cells were washed with the DPBS and were dissolved in a lysis buffer (200 μL), and then the degree of expression of the luciferase was determined by using a microplate fluorescence analyzer (VICTOR 3 V Multilabel Counter, PerkinElmer, Wellesley, Mass.). The results are illustrated in FIG. 5.
(§2) In order to evaluate the delivery efficiency of siRNA (luciferase siRNA, siLuc) for the Zn-DPA complex compound synthesized in Example 1-3, a cell experiment was performed in the same manner as in Experimental Example 4 by classifying the experimental groups into groups treated with biotin at a concentration of 0.5 mM and 5 mM 30 minutes before treating the groups with a composite of siRNA and the Zn-DPA complex compound, or a non-treatment group. […]

Another assay relates to HepG2 cell line. The description is as above. The format is cell-based. To be noted: biotin 0.5 mM and 5 mM 30 minutes before, molar ratio 1:400, FIG. 6. Here is the method: as §1, §2

With `O=C(CCCCC1SC[C@H]2NC(=O)N[C@@H]12)NCCCCOc1cccc(CN(Cc2ccccn2)Cc2ccccn2)c1` (some centres unmarked) [Example 1-3], the “effect of biotin on cell delivery efficiency / amount of luciferase expressed” value was “slight” in the assay with HCT116 cell line and “significantly varied depending on the presence or absence of biotin” in the assay on HepG2 cell line.
